# In ChEMBL document CHEMBL3232945 (Eur J Med Chem, 2014):
# Key:
# Rattus norvegicus [1] = assay: Toxicity in […] normotensive Wistar rat assessed as mean arterial pressure at 40 mg/kg, ip measured immediately at 0 min (reference value: 94.21 +/- 2.065 mmHg); type: organism-based, Artery; design: dose 40 mg/kg, route intraperitoneal; conditions: in vivo, 0 h
# Rattus norvegicus [2] = assay: Toxicity in anesthetized-normotensive Wistar rat assessed as heart rate at 40 mg/kg, ip after 15 mins (reference value: 313.93 +/- 9.912 bpm); type: organism-based; design: dose 40 mg/kg, route intraperitoneal; conditions: in vivo, 0.25 h
# Rattus norvegicus [3] = assay: Toxicity in anesthetized-normotensive Wistar rat assessed as heart rate at 40 mg/kg, ip after 60 mins (reference value: 314.96 +/- 9.442 bpm); type: organism-based; design: dose 40 mg/kg, route intraperitoneal; conditions: in vivo, 1 h
# Rattus norvegicus [4] = assay: Toxicity in anaesthetized-Wistar rat assessed as Q-T ECG interval at 40 mg/kg, ip after 15 mins (reference value: 79.4 +/- 1.270 ms); type: organism-based; design: dose 40 mg/kg, route intraperitoneal; conditions: in vivo, 0.25 h
# Rattus norvegicus [5] = assay: Toxicity in anaesthetized-Wistar rat assessed as Q-T ECG interval at 40 mg/kg, ip after 30 mins (reference value: 78.3 +/- 0.860 ms); type: organism-based; design: dose 40 mg/kg, route intraperitoneal; conditions: in vivo, 0.5 h
# Rattus norvegicus [6] = assay: Toxicity in anaesthetized-Wistar rat assessed as QRS ECG interval at 40 mg/kg, ip measured immediately at 0 min (reference value: 19.6 +/- 1.142 ms); type: organism-based; design: dose 40 mg/kg, route intraperitoneal; conditions: in vivo, 0 h
# Rattus norvegicus [7] = assay: Antihypertensive activity in Wistar rat assessed as mean arterial pressure at 40 mg/kg, ip after 15 mins (reference value: 195.68 +/- 1.623 mmHg); type: functional, Artery; conditions: route intraperitoneal
# Rattus norvegicus [8] = assay: Antihypertensive activity in Wistar rat assessed as mean arterial pressure at 40 mg/kg, ip measured immediately at 0 min (reference value: 194.08 +/- 1.962 mmHg); type: functional, Artery; conditions: route intraperitoneal
# Rattus norvegicus [9] = assay: Toxicity in anaesthetized-Wistar rat assessed as Q-T ECG interval at 40 mg/kg, ip after 60 mins (reference value: 79.7 +/- 0.965 ms); type: organism-based; design: dose 40 mg/kg, route intraperitoneal; conditions: in vivo, 1 h
# Rattus norvegicus [10] = assay: Toxicity in anaesthetized-Wistar rat assessed as P-Q ECG interval at 40 mg/kg, ip after 45 mins (reference value: 52.5 +/- 0.780 ms); type: organism-based; design: dose 40 mg/kg, route intraperitoneal; conditions: in vivo, 0.75 h
# Rattus norvegicus [11] = assay: Toxicity in anaesthetized-Wistar rat assessed as QRS ECG interval at 40 mg/kg, ip after 60 mins (reference value: 19.3 +/- 0.873 ms); type: organism-based; design: dose 40 mg/kg, route intraperitoneal; conditions: in vivo, 1 h
# Rattus norvegicus [12] = assay: Toxicity in anesthetized-normotensive Wistar rat assessed as heart rate at 40 mg/kg, ip after 30 mins (reference value: 317.68 +/- 7.631 bpm); type: organism-based; design: dose 40 mg/kg, route intraperitoneal; conditions: in vivo, 0.5 h
# Rattus norvegicus [13] = assay: Toxicity in anaesthetized-Wistar rat assessed as P-Q ECG interval at 40 mg/kg, ip measured immediately at 0 min (reference value: 52.4 +/- 0.927 ms); type: organism-based; design: dose 40 mg/kg, route intraperitoneal; conditions: in vivo, 0 h
# Rattus norvegicus [14] = assay: Toxicity in anaesthetized-Wistar rat assessed as QRS ECG interval at 40 mg/kg, ip after 45 mins (reference value: 20.2 +/- 1.348 ms); type: organism-based; design: dose 40 mg/kg, route intraperitoneal; conditions: in vivo, 0.75 h
# Rattus norvegicus [15] = assay: Antihypertensive activity in Wistar rat assessed as mean arterial pressure at 40 mg/kg, ip after 30 mins (reference value: 194.72 +/- 1.002 mmHg); type: functional, Artery; conditions: route intraperitoneal
# Rattus norvegicus [16] = assay: Toxicity in anaesthetized-Wistar rat assessed as QRS ECG interval at 40 mg/kg, ip after 30 mins (reference value: 19.9 +/- 1.393 ms); type: organism-based; design: dose 40 mg/kg, route intraperitoneal; conditions: in vivo, 0.5 h
# Rattus norvegicus [17] = assay: Toxicity in […] normotensive Wistar rat assessed as mean arterial pressure at 40 mg/kg, ip after 30 mins (reference value: 94.68 +/- 1.213 mmHg); type: organism-based, Artery; design: dose 40 mg/kg, route intraperitoneal; conditions: in vivo, 0.5 h
# Rattus norvegicus [18] = assay: Toxicity in […] normotensive Wistar rat assessed as mean arterial pressure at 40 mg/kg, ip after 60 mins (reference value: 95.07 +/- 1.973 mmHg); type: organism-based, Artery; design: dose 40 mg/kg, route intraperitoneal; conditions: in vivo, 1 h
# Rattus norvegicus [19] = assay: Antihypertensive activity in Wistar rat assessed as mean arterial pressure at 40 mg/kg, ip after 45 mins (reference value: 193.96 +/- 0.865 mmHg); type: functional, Artery; conditions: route intraperitoneal
# Rattus norvegicus [20] = assay: Toxicity in […] normotensive Wistar rat assessed as mean arterial pressure at 40 mg/kg, ip after 45 mins (reference value: 94.83 +/- 0.943 mmHg); type: organism-based, Artery; design: dose 40 mg/kg, route intraperitoneal; conditions: in vivo, 0.75 h
# Rattus norvegicus [21] = assay: Toxicity in anaesthetized-Wistar rat assessed as P-Q ECG interval at 40 mg/kg, ip after 15 mins (reference value: 52.2 +/- 1.158 ms); type: organism-based; design: dose 40 mg/kg, route intraperitoneal; conditions: in vivo, 0.25 h
# Rattus norvegicus [22] = assay: Toxicity in anesthetized-normotensive Wistar rat assessed as heart rate at 40 mg/kg, ip after 45 mins (reference value: 316.82 +/- 8.452 bpm); type: organism-based; design: dose 40 mg/kg, route intraperitoneal; conditions: in vivo, 0.75 h
# Rattus norvegicus [23] = assay: Antiarrhythmic activity in barium chloride-induced Wistar rat assessed as increase in mortality time at 40 mg/kg, ip administered 60 mins before barium chloride challenge (reference value: 682.8 +/- 9.656 secs); type: functional, Heart; conditions: route intraperitoneal
# Rattus norvegicus [24] = assay: Antiarrhythmic activity in barium chloride-induced Wistar rat assessed as increase in appearance time of arrhythmia at 40 mg/kg, ip administered 60 mins before barium chloride challenge (reference value: 129.4 +/- 4.373 sec); type: functional, Heart; conditions: route intraperitoneal
# Rattus norvegicus [25] = assay: Toxicity in anaesthetized-Wistar rat assessed as Q-T ECG interval at 40 mg/kg, ip after 45 mins (reference value: 78.8 +/- 0.927 ms); type: organism-based; design: dose 40 mg/kg, route intraperitoneal; conditions: in vivo, 0.75 h
# Rattus norvegicus [26] = assay: Toxicity in anesthetized-normotensive Wistar rat assessed as heart rate at 40 mg/kg, ip measured immediately at 0 min (reference value: 316.62 +/- 9.643 bpm); type: organism-based; design: dose 40 mg/kg, route intraperitoneal; conditions: in vivo, 0 h
# Rattus norvegicus [27] = assay: Toxicity in anaesthetized-Wistar rat assessed as QRS ECG interval at 40 mg/kg, ip after 15 mins (reference value: 18.9 +/- 1.563 ms); type: organism-based; design: dose 40 mg/kg, route intraperitoneal; conditions: in vivo, 0.25 h
# Rattus norvegicus [28] = assay: Antihypertensive activity in Wistar rat assessed as mean arterial pressure at 40 mg/kg, ip after 60 mins (reference value: 195.11 +/- 0.531 mmHg); type: functional, Artery; conditions: route intraperitoneal
# Rattus norvegicus [29] = assay: Toxicity in anaesthetized-Wistar rat assessed as P-Q ECG interval at 40 mg/kg, ip after 60 mins (reference value: […] +/- 0.924 ms); type: organism-based; design: dose 40 mg/kg, route intraperitoneal; conditions: in vivo, 1 h
# Rattus norvegicus [30] = assay: Toxicity in […] normotensive Wistar rat assessed as mean arterial pressure at 40 mg/kg, ip after 15 mins (reference value: 93.81 +/- 1.543 mmHg); type: organism-based, Artery; design: dose 40 mg/kg, route intraperitoneal; conditions: in vivo, 0.25 h
# Rattus norvegicus [31] = assay: Toxicity in anaesthetized-Wistar rat assessed as P-Q ECG interval at 40 mg/kg, ip after 30 mins (reference value: […] +/- 0.927 ms); type: organism-based; design: dose 40 mg/kg, route intraperitoneal; conditions: in vivo, 0.5 h
# Rattus norvegicus [32] = assay: Toxicity in anaesthetized-Wistar rat assessed as Q-T ECG interval at 40 mg/kg, ip measured immediately at 0 min (reference value: 78.8 +/- 1.030 ms); type: organism-based; design: dose 40 mg/kg, route intraperitoneal; conditions: in vivo, 0 h
SMILES,Activity (Rattus norvegicus [1]),Activity (Rattus norvegicus [2]),Activity (Rattus norvegicus [3]),Activity (Rattus norvegicus [4]),Activity (Rattus norvegicus [5]),Activity (Rattus norvegicus [6]),Activity (Rattus norvegicus [7]),Activity (Rattus norvegicus [8]),Activity (Rattus norvegicus [9]),Activity (Rattus norvegicus [10]),Activity (Rattus norvegicus [11]),Activity (Rattus norvegicus [12]),Activity (Rattus norvegicus [13]),Activity (Rattus norvegicus [14]),Activity (Rattus norvegicus [15]),Activity (Rattus norvegicus [16]),Activity (Rattus norvegicus [17]),Activity (Rattus norvegicus [18]),Activity (Rattus norvegicus [19]),Activity (Rattus norvegicus [20]),further results
O=C1/C(=C\c2ccccc2)S/C(=N\c2ccccc2)N1CC(O)CN1CCNCC1 (stereo not drawn),92.33 mmHg,292.46 bpm,298.12 bpm,80.6 min,81.8 min,20.8 min,176.65 mmHg,196.63 mmHg,82.1 ms,56.9 min,22.4 min,259.31 bpm,54.3 ms,23.7 min,153.16 mmHg,23.8 ms,62.26 mmHg,70.27 mmHg,128.32 mmHg,62.53 mmHg,Activity (Rattus norvegicus [21]): 54.7 min; Activity (Rattus norvegicus [22]): 269.73 bpm; Time (Rattus norvegicus [23]): 1380.5 s; Time (Rattus norvegicus [24]): 379.7 s; Activity (Rattus norvegicus [25]): 82.4 min; Activity (Rattus norvegicus [26]): 302.12 bpm; Activity (Rattus norvegicus [27]): 21.6 min; Activity (Rattus norvegicus [28]): 159.08 mmHg; Activity (Rattus norvegicus [29]): 55.1 min; Activity (Rattus norvegicus [30]): 78.76 mmHg; Activity (Rattus norvegicus [31]): 56.4 min; Activity (Rattus norvegicus [32]): 80.2 min
O=C1/C(=C\c2ccccc2)S/C(=N\c2ccccc2)N1CC(O)CN1CCC(C(O)(c2ccccc2)c2ccccc2)CC1 (stereo not drawn),91.39 mmHg,310.46 bpm,302.12 bpm,73.4 min,74.3 min,22.4 min,176.43 mmHg,193.69 mmHg,72.7 ms,52.4 min,22.5 min,279.31 bpm,49.8 ms,24.2 min,139.21 mmHg,23.8 ms,70.26 mmHg,71.94 mmHg,135.96 mmHg,64.53 mmHg,Activity (Rattus norvegicus [21]): 50.1 min; Activity (Rattus norvegicus [22]): 295.73 bpm; Time (Rattus norvegicus [23]): 1162.1 s; Time (Rattus norvegicus [24]): 323.4 s; Activity (Rattus norvegicus [25]): 74.9 min; Activity (Rattus norvegicus [26]): 332.05 bpm; Activity (Rattus norvegicus [27]): 23.1 min; Activity (Rattus norvegicus [28]): 162.87 mmHg; Activity (Rattus norvegicus [29]): 50.2 min; Activity (Rattus norvegicus [30]): 76.73 mmHg; Activity (Rattus norvegicus [31]): 51.3 min; Activity (Rattus norvegicus [32]): 72.9 min
O=C1/C(=C\c2ccccc2)S/C(=N\c2ccccc2)N1CC(O)CN(c1ccccc1)c1ccccc1 (stereo not drawn),94.09 mmHg,305.46 bpm,302.92 bpm,71.5 min,72.3 min,20.3 min,183.55 mmHg,194.26 mmHg,70.7 ms,53.4 min,20.4 min,292.41 bpm,50.6 ms,21.6 min,169.59 mmHg,22.1 ms,85.08 mmHg,90.27 mmHg,159.27 mmHg,85.43 mmHg,Activity (Rattus norvegicus [21]): 51.2 min; Activity (Rattus norvegicus [22]): 289.26 bpm; Time (Rattus norvegicus [23]): 768.5 s; Time (Rattus norvegicus [24]): 234.8 s; Activity (Rattus norvegicus [25]): 0.00119 min; Activity (Rattus norvegicus [26]): 316.34 bpm; Activity (Rattus norvegicus [27]): 21.2 min; Activity (Rattus norvegicus [28]): 169.93 mmHg; Activity (Rattus norvegicus [29]): 52.6 min; Activity (Rattus norvegicus [30]): 87.32 mmHg; Activity (Rattus norvegicus [31]): 54.1 min; Activity (Rattus norvegicus [32]): 70.2 min
O=C1/C(=C\c2ccccc2)S/C(=N\c2ccccc2)N1CC(O)CN1CCN(c2ccccc2)CC1 (stereo not drawn),94.56 mmHg,309.46 bpm,301.92 bpm,73.9 min,74.2 min,21.8 min,180.43 mmHg,194.87 mmHg,75 ms,53.9 min,24.7 min,295.41 bpm,52.4 ms,24.1 min,146.27 mmHg,23.5 ms,76.84 mmHg,83.55 mmHg,156.09 mmHg,79.26 mmHg,Activity (Rattus norvegicus [21]): 52.7 min; Activity (Rattus norvegicus [22]): 287.25 bpm; Time (Rattus norvegicus [23]): 964.4 s; Time (Rattus norvegicus [24]): 285.4 s; Activity (Rattus norvegicus [25]): 74.9 min; Activity (Rattus norvegicus [26]): 318.34 bpm; Activity (Rattus norvegicus [27]): 22.2 min; Activity (Rattus norvegicus [28]): 182.32 mmHg; Activity (Rattus norvegicus [29]): 54.2 min; Activity (Rattus norvegicus [30]): 86.43 mmHg; Activity (Rattus norvegicus [31]): 53.3 min; Activity (Rattus norvegicus [32]): 73.5 min
